Assay [1] has as its system histone acetyltransferase (HAT). The assay can be described thus: HAT activity assay on nuclear extracts of treated fibroblasts. As to conditions: 10 μM blebbistatin or 5 μM PF573228, 2 hours, vs DMSO. In kind it is cell-based, mouse. The procedure:
Nuclear protein extractions were isolated from 5×10^5 fibroblasts treated with vehicle control (DMSO), 10 μM blebbistatin or 5 μM PF573228 for 2 hours using a nuclear extraction kit (EpiGentek, OP-0002), in accordance with the manufacturer's instructions. HAT, HDAC, H3K4 HMT, H3K4 HDM and DNMT activity were measured using the HAT activity/inhibition assay (EpiGentek, P-4003-048), HDAC activity/inhibition assay (EpiGentek, P-4034-096), Histone methyltransferase (H3K4 specific) activity/inhibition assay (EpiGentek, P-3002-1), Histone Demethylase (H3K4 specific) activity/inhibition assay (EpiGentek, P-3074-48), and DNMT activity/inhibition assay (EpiGentek, P-3009-048), respectively. Per the manufacturer's instructions, 20 μg of nuclear extract was added into the assay wells and incubated at 37° C. for 90 minutes. After adding the color developer solution, the absorbance was measured using a plate reader (Infinite […], 30050303) at 450 nm for all the assays with the exception of the Histone Demethylase (H3K4 specific) activity/inhibition assay where we measured the fluorescence using a fluorescence microplate reader at 530 EX/590 EM nm.

Assay [2] concerns promoter regions of Ascl1, Brn2, Myt1l and TUBB3. The assay can be described thus: ChIP-qPCR of histone modifications at neuronal gene promoters. The format is cell-based, mouse. Particulars: BAM-transduced fibroblasts, day 3, relative to DMSO. The procedure:
Halt™ Protease and Phosphatase Inhibitor Cocktail (ThermoFisher Scientific, 78442) was added to Cell Lysis (10 mM Tris-HCl pH 8.0, 85 mM KCl, 0.5% NP-40), Nuclei Lysis (10 mM Tris-HCl pH 7.5, 1% NP-40, 0.5% sodium deoxycholate, 0.1% SDS), and ChIP Dilution (0.01% SDS, 1.1% Triton X-100, 1.2 mM EDTA, 16.7 mM Tris-HCL pH 8.1, 167 mM NaCl) Buffers.
Three days post-Dox addition, 4×10^6 BAM-transduced fibroblasts cultured in the absence and presence of 10 μM blebbistatin and 5 μM PF573228, respectively, for 2 days were fixed using 1% formaldehyde in PBS (Fisher Scientific, BP531) for 10 minutes. 125 mM Glycine was added for 5 minutes to quench excess formaldehyde, followed by 2 washes with cold 1×PBS. Cells were scraped and collected into microcentrifuge tubes and centrifuged at 800 g at 4° C. for 5 minutes. Upon removing the supernatant, cell pellets were snap-frozen in liquid nitrogen and stored at −80° C. The cells were then resuspended and lysed in Cell Lysis Buffer and resuspended in Nuclei Lysis Buffer prior to sonication using a Branson SFX250 Sonifier at 40% amplitude, 0.7 seconds on and 1.3 seconds off, for a total of 8 minutes. […]
50 μL ChIP Elution Buffer was added to the stored internal controls from the post-sonication step. […] ChIP-qPCR data were analyzed by normalizing the DNA concentration to percent input using the relative standard curve method.

Regarding `CS(=O)(=O)c1cccc(CNc2nc(Nc3ccc4c(c3)CCC(=O)N4)ncc2C(F)(F)F)c1` [PF573228], the HAT activity result in assay [1] was “differences”. Further, the “histone modifications at promoter regions of Ascl1, Brn2, Myt1l and TUBB3” value in assay [2] was “significant increases in AcH3, H3K3me3 and H3K4me1 at the promoter regions”.
On to `Cc1ccc2c(c1)C(=O)C1(O)CCN(c3ccccc3)C1=N2` (stereo not shown) [blebbistatin], for which the HAT activity entry in assay [1] is “increased”. Moreover, in assay [2], the “histone modifications at promoter regions of Ascl1, Brn2, Myt1l and TUBB3” value was “significant increases in AcH3, H3K4me3 and H3K4me1 at all four promoter regions”.

The record behind these values is patent US20230381774A1, “MICROFLUDIC LAB-ON-CHIP DEVICE, MATRIX, SMALL MOLECULES AND THREE-DIMENSIONAL SPHEROIDS FOR CELL REPROGRAMMING” (The Regents of the University of California, priority 2022, published 2023).
